The values that follow come from ChEMBL document CHEMBL1201862, “PubChem BioAssay data set” (2004).

Among the test systems are KM12; MDA-N; HOP-92; A498; OVCAR-8; SR; OVCAR-3; NCI-H522; HOP-62; EKVX; MOLT-4; PC-3; Hs-578T; NCI-H23; UACC-257; SK-MEL-2; NCI/ADR-RES; K562; HL-60.
Holding throughout (assay): NCI-60 cell line screen, 48 h

SMILES strings stand for the structures.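 48-hour exposure; five concentrations; linearly interpolated endpoints. At the GI50, growth is halved.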 Calls of active or inactive are those of the source. Rule as the data show it: active = GI50 up to about 1.1 µM and inactive = higher. Some results are limits rather than exact numbers.

`CC(C)C[C@H](NC(=O)CCc1cccc2ccccc12)B(O)O`: the GI50 with KM12 was 1.89 µM (inactive); in the assay with MDA-N it was 0.452 µM (active); in the assay with HOP-92, 2.17 µM (inactive); in the assay with A498 it was 0.497 µM (active); in the assay on OVCAR-8, 2.81 µM (inactive); in the assay with SR it was 0.37 µM (active). Further, the GI50 with OVCAR-3 is 0.463 µM (active); in the assay on NCI-H522, 1.24 µM (inactive); with HOP-62 it was 3.22 µM (inactive); in the assay with EKVX, 5.27 µM (inactive); in the assay on MOLT-4, 0.375 µM (active); in the assay with PC-3 it was 3.9 µM (inactive). For the same compound, the GI50 in the assay on Hs-578T is 0.857 µM (active); with NCI-H23 it was 1.16 µM (inactive); in the assay with UACC-257 it was 1.2 µM (inactive); in the assay with SK-MEL-2, 1.03 µM (active); with NCI/ADR-RES, 1.95 µM (inactive); in the assay with K562, 2.34 µM (inactive).
Take `CCC1(CC)C(=O)NN(C(=O)c2ccccc2)C1=O`: the GI50 is 6.49 µM (inactive) with KM12; > 100 µM (inactive) in the assay with MDA-N; > 100 µM (inactive) in the assay with OVCAR-8; > 100 µM (inactive) with SR; > 100 µM (inactive) with OVCAR-3; > 100 µM (inactive) in the assay on NCI-H522. Also, the GI50 in the assay on HOP-62, with EKVX, in the assay with MOLT-4, with PC-3, with Hs-578T and with NCI-H23 was > 100 µM (inactive) in each case. Further, the GI50 in the assay on HL-60, in the assay with UACC-257, in the assay with SK-MEL-2, in the assay with NCI/ADR-RES and with K562 was > 100 µM (inactive) throughout.
As to `COc1cc2oc(=O)ccc2cc1C1OC(=O)C2OC21C` (stereo not drawn), the GI50 in the assay on KM12, in the assay on MDA-N, in the assay with HOP-92, in the assay on OVCAR-8, in the assay with SR and in the assay with OVCAR-3 was > 100 µM (inactive) in each case. Also, the GI50 is > 100 µM (inactive) in the assay with HOP-62; > 100 µM (inactive) in the assay with EKVX; > 100 µM (inactive) in the assay with MOLT-4; > 100 µM (inactive) with PC-3; 54.6 µM (inactive) in the assay on Hs-578T; > 100 µM (inactive) in the assay on NCI-H23. Moreover, the GI50 in the assay on HL-60, in the assay with UACC-257, in the assay with SK-MEL-2, in the assay on NCI/ADR-RES and with K562 was > 100 µM (inactive) throughout.
`Nc1cccc(Nc2nc3ccccc3nc2NS(=O)(=O)c2ccccc2)c1`: the GI50 in the assay on KM12 is 18.8 µM (inactive); with MDA-N, 33.4 µM (inactive); in the assay with HOP-92, 23.3 µM (inactive); in the assay with OVCAR-8 it was 30 µM (inactive); in the assay on SR, 20.3 µM (inactive); in the assay with OVCAR-3 it was 17.7 µM (inactive). In addition, the GI50 in the assay on HOP-62 was 26.7 µM (inactive); with EKVX, 43.9 µM (inactive); with MOLT-4, 15.9 µM (inactive); with PC-3 it was 19.5 µM (inactive); with Hs-578T, 41.7 µM (inactive); in the assay on NCI-H23, 12.9 µM (inactive). Besides, the GI50 was 20.7 µM (inactive) in the assay on HL-60; 31.3 µM (inactive) in the assay on UACC-257; 15.7 µM (inactive) in the assay with SK-MEL-2; 27.3 µM (inactive) in the assay on NCI/ADR-RES; 21.1 µM (inactive) with K562.
As for `Cc1ccc(/C=N/Nc2ccc3ccccc3n2)s1`, the GI50 is 32.3 µM (inactive) with KM12; 13.4 µM (inactive) in the assay with MDA-N; 19.1 µM (inactive) in the assay with HOP-92; 26.7 µM (inactive) with OVCAR-8; 22.2 µM (inactive) in the assay on SR; 5.58 µM (inactive) in the assay on OVCAR-3. In addition, the GI50 with NCI-H522 is 15.7 µM (inactive); in the assay with HOP-62 it was 20.8 µM (inactive); in the assay with EKVX, 4.73 µM (inactive); in the assay with MOLT-4, 9.55 µM (inactive); in the assay with PC-3, 13.2 µM (inactive); in the assay with Hs-578T, 25.2 µM (inactive). For the same compound, the GI50 was 18.6 µM (inactive) with NCI-H23; 41.5 µM (inactive) in the assay on HL-60; 6.01 µM (inactive) with UACC-257; > 100 µM (inactive) in the assay with SK-MEL-2; 35.5 µM (inactive) with NCI/ADR-RES; 16.9 µM (inactive) in the assay with K562.
On to `O=C1NC(=O)[C@@H](OCC2CCCCC2)[C@@H]2OCC3OC(C(O)C3O)C12` (stereo partly drawn), for which the GI50 in the assay with KM12, in the assay on MDA-N, with A498, in the assay with OVCAR-8, with SR and in the assay with OVCAR-3 was > 100 µM (inactive) each time. In addition, the GI50 in the assay on HOP-62, with EKVX, in the assay with MOLT-4, in the assay on PC-3, with Hs-578T and in the assay on NCI-H23 was > 100 µM (inactive) in each case. In addition, the GI50 in the assay with HL-60, in the assay on UACC-257, in the assay on SK-MEL-2 and with NCI/ADR-RES was > 100 µM (inactive) in each case.
As to `COC(=O)C1=C(C(=O)OC)C2(C)CCC(=O)C1O2` (stereo not drawn), the GI50 in the assay on KM12, in the assay with MDA-N, in the assay with A498, in the assay with OVCAR-8, in the assay on SR and in the assay on OVCAR-3 was > 10 µM (inactive) in each case. For the same compound, the GI50 in the assay with HOP-62, in the assay with EKVX, in the assay with MOLT-4, with PC-3, in the assay on Hs-578T and in the assay on NCI-H23 was > 10 µM (inactive) each time. Further, the GI50 with HL-60, in the assay on UACC-257, with SK-MEL-2, in the assay on NCI/ADR-RES and in the assay on K562 was > 10 µM (inactive) throughout.
On to `CC(=O)C(C(=O)C(C)(C)C)C(=O)C(C)(C)C`, for which the GI50 in the assay on KM12, with MDA-N, in the assay with HOP-92, in the assay with OVCAR-8, with SR and in the assay with NCI-H522 was > 100 µM (inactive) in each case. Also, the GI50 with HOP-62, with MOLT-4, in the assay on PC-3, with Hs-578T, in the assay with HL-60 and with UACC-257 was > 100 µM (inactive) in each case. The GI50 in the assay with SK-MEL-2, in the assay with NCI/ADR-RES and in the assay on K562 was > 100 µM (inactive) throughout.
On to `N#CC1=C(C#N)/C(=C(\C#N)C(C#N)C#N)N=C1N`, for which the GI50 is 64.4 µM (inactive) in the assay with KM12; 15.4 µM (inactive) in the assay with MDA-N; 28.2 µM (inactive) with HOP-92; 25.9 µM (inactive) in the assay on A498; 52 µM (inactive) with OVCAR-8; 25.2 µM (inactive) with SR. In addition, the GI50 was 34.5 µM (inactive) with OVCAR-3; 13.8 µM (inactive) in the assay on NCI-H522; 26.7 µM (inactive) with HOP-62; 43.9 µM (inactive) with EKVX; 13.4 µM (inactive) in the assay on MOLT-4; 28.7 µM (inactive) in the assay with PC-3. For the same compound, the GI50 is 28.2 µM (inactive) with Hs-578T; 32.1 µM (inactive) with NCI-H23; 19.6 µM (inactive) in the assay on UACC-257; 14.7 µM (inactive) in the assay with SK-MEL-2; 50.8 µM (inactive) in the assay with NCI/ADR-RES; 31.5 µM (inactive) in the assay with K562.
